“And” between values parts separate entries of the source, which are not always exact repeats. Identical values can stand only once.
Columns and labels:
[1] = tested on: mosquito Culex pipiens pallens; conditions: Park et al., J. Am. Mosquito Control Assoc., 2005; cited from earlier work
[2] = Example 16: release of geraniol from geranyl-O-β-D-3′-ketoglucopyranoside, 0.1 M deuterated phosphate buffer, 10% D6-DMSO, 37° C., presence and absence of fresh skin wash; format: physicochemical
Experimental: In this example the rate of release of geraniol from (2R,3S,6R)-2-(((E)-3,7-dimethylocta-2,6-dien-1-yl)oxy)-3,5-dihydroxy-6-(hydroxymethyl)tetrahydro-4H-pyran-4-one (geranyl-O-β-D-3′-ketoglucopyranoside) in 0.1 M deuterated phosphate buffer solutions of differing pH containing 10% D6-DMSO or in D2O containing 10% D6-DMSO at 37° C. in the presence and absence of fresh skin wash was determined.
1 M Stock solutions of sodium dihydrogen phosphate and disodium hydrogen phosphate were prepared in deuterated water (D2O).
A stock solution of 25 mg of geranyl-O-β-D-3′-ketoglucopyranoside in 0.5 mL of D6-DMSO were prepared.
In a typical experiment, a stock solution of fresh skin wash suspension was prepared by swabbing a 25 cm^2 areas of cheek skin of a human volunteer by robustly rubbing the area with a cotton wool gauze (5×5 cm^2) soaked in D2O (12.5 mL) for 1 minute and then resuspending the gauze in the D2O solution, rapidly shaking and removing the gauze after squeezing out as much liquid as possible with a spatula. 1 M Stock solutions phosphate buffer, pH 5.7 and 7.0 were prepared by appropriately mixing 1 M stock phosphate salts solutions to the correct pH as determined using a calibrated pH meter.
Half of each buffer stock solution was diluted ten times with D2O and the other with the above skin washing stock solution to give a 0.1 M phosphate buffer in D2O with a final pH of 5.7, 0.1 M phosphate buffer in D2O with a final pH of 7.0, a 0.1 M phosphate buffer in skin wash solution with a final pH of 5.7 and a 0.1 M phosphate buffer in skin wash solution with a final pH of 7.0.
To three parallel reaction vials, where indicated in the reaction table below, was added 0.45 mL of low or high pH 0.1 M phosphate buffer in D2O or 0.45 mL of low or high pH 0.1M phosphate buffer in skin wash solution followed by 0.05 mL of the glycoside substrate solutions in D6-DMSO and the mixtures incubated by shaking at 37° C. After times indicated in table below, the mixtures where analysed by ^1H-NMR with 128 scans using a 400 MHz instrument.

[3] = Description: alcohol release from model compounds (III), (IV) and compound (V) in buffer, water and skin washings; format: physicochemical
[4] = Example 32: release of geraniol from geranyl-O-β-D-3′-ketoglucopyranoside (PEG200, L-arginine, calcium chloride solution) on a paper kitchen towel disc, room temperature; format: physicochemical
Experimental: Geranyl-O-β-D-3′-ketoglucopyranoside, obtained according to Example 4, (50 mg) was dissolved in polyethylene glycol 200 (PEG200) (0.1 mL) with gentle heating. 0.1 mL of a solution of L-arginine (10 mg) dissolved in 0.1 mL of a 3:7 w/v solution of anhydrous calcium chloride in water was then added and thoroughly mixed. The resultant solution was spread over a 5 cm diameter paper kitchen towel disc and left to stand at room temperature. The smell of released geraniol evolved from the disc was then assessed with time as strong, medium or weak and reported in Table XIX:
After 19 h, the reaction mixture was dissolved in D4-MeOH and analysed by 1H NMR.

[5] = Example 31: stability of geranyl-O-β-D-3′-ketoglucopyranoside in D2O at 50° C.; format: physicochemical; conditions: 5 mg in D2O (1 mL), 2 weeks
Experimental: Geranyl-O-β-D-3′-ketoglucopyranoside, obtained according to Example 4 (5 mg) was added to D2O (1 mL) and heated at 50° C.

[6] = tested on: Aedes albopictus mosquitoes; assay: Example 33: in vitro mosquito testing, landings on treated Hemotek membranes; format: in vivo; conditions: for Landing (total number of landings over the 20-minute exposure): 50 mg on membrane, 15 females, duplicate membranes
Experimental: Aedes albopictus mosquitoes were reared and maintained at 26±2° C. temperature, ≥80%±10 relative humidity, with a 12 h:12 h (light:dark) photoperiod.
Populations of adult mosquitoes were allowed to feed on sugar solution (10%) but were not blood fed before tests.
Geranyl-O-β-D-3′-ketoglucopyranoside, obtained according to Example 4, (100 mg) was dissolved in polyethylene glycol 200 (PEG200) (0.2 mL) with gentle heating to give Solution 1. Then 200 mg of L-arginine was dissolved in 2 mL of a 3:7 w/v solution of anhydrous calcium chloride in water to give Solution 2. Solution 2 (0.2 mL) was added to all of Solution 1 to give Solution 3. The contents of Solution 3 were thoroughly mixed and half of the resultant solution was applied to parallel 5 cm diameter artificial Hemotek membranes covered with paper kitchen towel of equal diameter. Parallel duplicate membranes, covered with paper kitchen towel, were also each treated with 0.2 mL of a 1:1 v/v solution of PEG200/Solution 2 and a further two parallel membranes were left untreated.
The membranes were heated over a reservoir of sheeps' blood at 37° C. using a Hemotek system and periodically exposed to 5- to 7-day old active host-seeking female mosquitoes, selected and collected using an aspirator and organized into batches (15 females) in plastic test containers. The heating was switched off between exposures to maintain membrane integrity and switched on 5 minutes prior to each exposure. Each membrane was exposed to a fresh container of female mosquitos for 20 minutes immediately after membrane preparation and again after 2 h, 4 h, 6 h and 8 h. At each time point, the number of mosquitos landing on each membrane immediately after exposure and 5, 10 and 20 minutes after exposure was counted and the total number of landings over each 20-minute exposure summed and tabulated.

[7] = Example 17: release of geraniol from a 40 mg/mL suspension of geranyl-O-β-D-3′-ketoglucopyranoside, 0.1 M phosphate buffer pH 7, 10% DMSO, 37° C.; format: physicochemical; conditions: after 3 d
Experimental: In this example the rate of release of geraniol from a 40 mg/mL suspension of (2R,3S,6R)-2-(((E)-3,7-dimethylocta-2,6-dien-1-yl)oxy)-3,5-dihydroxy-6-(hydroxymethyl)tetrahydro-4H-pyran-4-one (geranyl-O-β-D-3′-ketoglucopyranoside) in 0.1 M deuterated phosphate buffer solution, pH 7, containing 10% DMSO at 37° C. was determined.
In a stoppered glass vial, geranyl-O-β-D-3′-ketoglucopyranoside (20 mg) was dissolved in D6-DMSO (0.05 mL) then diluted with 0.1 M sodium phosphate buffer, pH 7.0 (0.45 mL) and the resultant suspension incubated by shaking at 37° C.

Cc1ccc(C(C)C)cc1O [Carvacrol, 2-methyl-5-propan-2-ylphenol]
repellency compared with DEET (in words) [1]: outperformed N,N-diethyl-m-methylbenzamide (DEET)

CC(C)=CCC/C(C)=C/CO[C@@H]1O[C@H](CO)[C@@H](O)C(=O)[C@H]1O [geranyl-O-β-D-3′-ketoglucopyranoside, (2R,3S,6R)-2-(((E)-3,7-dimethylocta-2,6-dien-1-yl)oxy)-3,5-dihydroxy-6-(hydroxymethyl)tetrahydro-4H-pyran-4-one]
% Conversion by 1H-NMR ([2]; 0.1M buffer in D2O, final pH 5.7, 19 h): 3%
% Conversion by 1H-NMR ([2]; 0.1M buffer in D2O, final pH 5.7, 41 h): 6%
% Conversion by 1H-NMR ([2]; 0.1M buffer in D2O, final pH 5.7, 72 h): 10%
% Conversion by 1H-NMR ([2]; 0.1M buffer in D2O, final pH 7.0, 19 h): 9%
% Conversion by 1H-NMR ([2]; 0.1M buffer in D2O, final pH 7.0, 41 h): 28%
% Conversion by 1H-NMR ([2]; 0.1M buffer in D2O, final pH 7.0, 72 h): 51%
% Conversion by 1H-NMR ([2]; 0.1M buffer in skin wash solution, final pH 7.0, 19 h): 10%
% Conversion by 1H-NMR ([2]; 0.1M buffer in skin wash solution, final pH 7.0, 41 h): 31%
% Conversion by 1H-NMR ([2]; 0.1M buffer in skin wash solution, final pH 7.0, 72 h): 48%
pH dependence of geraniol release (in words) ([2]; 37° C., presence or absence of skin wash): only slowly degraded at pH 5.8, but releases geraniol at a significantly higher rate at pH 7.4 that is unchanged in the presence or absence of skin wash
degradation rate compared with compound (III) (in words) [3]: degraded significantly faster than compound (III)
aroma of geraniol on opening the stoppered reaction vessel ([3]; 20 mg/mL mixture, after 3 d): a very pungent aroma of geraniol was immediately noticeable
degraded ([3]; after 3 days): approximately 50%
Geraniol strength by smell ([4]; 0 h): strong
Geraniol strength by smell ([4]; 0.3 h): strong
Geraniol strength by smell ([4]; 2 h): strong
Geraniol strength by smell ([4]; 3 h): strong
Geraniol strength by smell ([4]; 4 h): strong
Geraniol strength by smell ([4]; 6 h): strong
Geraniol strength by smell ([4]; 11 h): medium
Geraniol strength by smell ([4]; 19 h): medium
stability in D2O by 1H NMR (in words) [5]: stable
Landing (total number of landings over the 20-minute exposure) ([6]; 6 h, listed as GS0010): 4 and 3
Landing (total number of landings over the 20-minute exposure) ([6]; 8 h): 0
repellent effect (conclusion in words) ([6]; in vivo): a repellent effect is provided
landings compared with diluent treated or untreated membranes (in words) ([6]; over 8 h): significantly fewer landings than observed with diluent treated or untreated membranes
extent of conversion to geraniol by 1H-NMR [7]: approximately 50%
smell of geraniol [7]: a strong smell of geraniol was observed
